In US4650785A, “Pharmaceutical composition having an excellent absorption property” (Ajinomoto Company Incoporated, priority 1982, dated 1987):

Experiments:
[1] = Usefulness as medicine absorption promoter (statement, test not described)
Female ICR-CD-1 mice = test: Oral administration of absorption promoter mixed with insulin to mice: decrease in blood glucose and elevation of blood insulin versus control; type: in vivo; design: Degree of Elevation of Blood Insulin: unit not given here; conditions: oral, mice, vs control group
Method: The absorption promoter samples listed in Table 2 were dissolved or suspended in 0.5% CMC-0.05M tris-HCl buffers (pH: 7.8) and the solutions or suspensions were mixed with aqueous insulin solution. Female ICR-CD-1 mice 5 to 7 weeks old were orally administered predetermined amounts of the mixtures. A predetermined duration later, the percent decrease in blood glucose and the degree of elevation of blood insulin as compared with the control group were measured. The symbol "Z" in the structural formulas in the table represents a benzyloxycarbonyl group. The upper figures in the columns "effectiveness" represent the percent decrease in blood glucose and the lower parenthesized figures indicate the degree of elevation in blood insulin.

Female CD-1(ICR) Mice = test: Toxicity studies of phenylalanine derivatives (LD50); type: in vivo; conditions: female CD-1(ICR) mice; suspended in 0.5% CMC
Text: Toxicity Studies of Phenylalanine Derivatives with Oral IN Potentiating Activity in Female CD-1(ICR) Mice are as follows:
Phenylalanine derivatives were suspended in 0.5% CMC.

[2] = sample 3.0 mg/10 g with insulin 2.5 U/10 g body weight, 30 minutes
[3] = sample 3.0 mg/10 g with insulin 2.5 U/10 g body weight, 60 minutes
[4] = sample 6.0 mg/10 g with insulin 2.5 U/10 g body weight, 30 minutes
[5] = sample 6.0 mg/10 g with insulin 2.5 U/10 g body weight, 60 minutes

| Structure (SMILES) | usefulness as the absorption promoter [1] | Decrease in Blood Glucose (%) (Female ICR-CD-1 mice; [2]) | Degree of Elevation of Blood Insulin (Female ICR-CD-1 mice; [2]) | Decrease in Blood Glucose (%) (Female ICR-CD-1 mice; [3]) | Degree of Elevation of Blood Insulin (Female ICR-CD-1 mice; [3]) | LD50 (mg/kg) (Female CD-1(ICR) Mice) | also measured |
| --- | --- | --- | --- | --- | --- | --- | --- |
| CC(=O)N[C@@H](Cc1ccccc1)C(=O)O [N-acetylphenylalanine] | not useful as the absorption promoter | – | – | – | – | – | – |
| N[C@@H](Cc1ccccc1)C(=O)O [Phenylalanine] | not useful as the absorption promoter | – | – | – | – | – | – |
| O=C(N[C@@H](Cc1ccccc1)C(=O)O)OCc1ccccc1 [Sample S-15, N-benzyloxycarbonyl-L-phenylalanine] | – | 37.5 | 3.43 | 60.7 | 2.36 | > 2,750 mg/kg | – |
| COc1ccc(COC(=O)N[C@@H](Cc2ccccc2)C(=O)O)cc1 [Sample S-17, N-(4-methoxybenzyloxycarbonyl)-L-phenylalanine] | – | 64.8 | 14.4 | 50.6 | 21.2 | – | LD50 (Female CD-1(ICR) Mice): 750 mg/kg |
| O=C(N[C@H](Cc1ccccc1)C(=O)O)OCc1ccccc1 [Sample S-18, N-benzyloxycarbonyl-D-phenylalanine] | – | – | – | – | – | > 4,000 mg/kg | Decrease in Blood Glucose (%) (Female ICR-CD-1 mice; [4]): 52.3%; Degree of Elevation of Blood Insulin (Female ICR-CD-1 mice; [4]): 6.79; Decrease in Blood Glucose (%) (Female ICR-CD-1 mice; [5]): 67.2%; Degree of Elevation of Blood Insulin (Female ICR-CD-1 mice; [5]): 10.6 |
